Test results: ChEMBL document CHEMBL3576790, “Novel Small Molecule Inhibitors of Activated Thrombin Activatable Fibrinolysis Inhibitor (TAFIa) from Natural Product Anabaenopeptin” (J Med Chem, 2015)
One block for each compound: values may come before it. *1 amine or outer side, *2 acyl side, *3 side chain or, on linkers, in order; H or OH if unused. Where a SMILES comes first, the peptide text is derived from it. Bridges are numbered along the chain shown (N, C = ends). [ ]: non-standard residue; d: D form. hTyr = N[C@@H](CCc1ccc(O)cc1)C(=O)O; NMeA = CN[C@@H](C)C(=O)O; CO = O=C([*:1])[*:2]

How the values were obtained:
Carboxypeptidase B2 = target: T1, Carboxypeptidase B2 (Homo sapiens, UniProt Q96IY4)
T1 sequence (Q96IY4 whole entry): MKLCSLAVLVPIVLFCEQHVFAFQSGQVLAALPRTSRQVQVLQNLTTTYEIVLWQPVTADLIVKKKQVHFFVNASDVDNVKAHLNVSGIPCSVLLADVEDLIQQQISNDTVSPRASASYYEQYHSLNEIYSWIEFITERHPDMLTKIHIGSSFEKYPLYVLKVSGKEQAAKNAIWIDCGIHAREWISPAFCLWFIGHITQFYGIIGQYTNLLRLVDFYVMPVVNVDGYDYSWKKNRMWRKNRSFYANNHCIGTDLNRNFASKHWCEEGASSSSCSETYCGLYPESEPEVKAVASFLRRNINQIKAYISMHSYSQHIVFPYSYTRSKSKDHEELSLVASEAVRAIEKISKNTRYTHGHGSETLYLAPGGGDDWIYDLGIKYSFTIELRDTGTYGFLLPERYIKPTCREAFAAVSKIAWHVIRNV
Description: Inhibition of human activated TAFI incubated for 15 mins by microtiter plate reader based assay

[1] = target: T2, Carboxypeptidase N catalytic chain (Homo sapiens, UniProt P15169); test: Inhibition of CPN (unknown origin)
T2 sequence (P15169 whole entry): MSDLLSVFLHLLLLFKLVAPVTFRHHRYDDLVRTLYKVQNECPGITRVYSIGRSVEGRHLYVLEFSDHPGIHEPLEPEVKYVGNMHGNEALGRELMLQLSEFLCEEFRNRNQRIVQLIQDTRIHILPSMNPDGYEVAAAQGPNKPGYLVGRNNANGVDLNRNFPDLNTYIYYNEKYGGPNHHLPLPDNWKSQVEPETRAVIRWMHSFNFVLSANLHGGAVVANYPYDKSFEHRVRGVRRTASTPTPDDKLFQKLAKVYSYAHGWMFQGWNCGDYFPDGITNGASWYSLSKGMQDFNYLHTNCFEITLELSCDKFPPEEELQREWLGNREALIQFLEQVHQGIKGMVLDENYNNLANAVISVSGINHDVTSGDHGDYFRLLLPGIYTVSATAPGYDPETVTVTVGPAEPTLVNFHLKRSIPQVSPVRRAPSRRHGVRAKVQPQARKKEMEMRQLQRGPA

Coagulation factor VII = target: T3, Coagulation factor VII (Homo sapiens, UniProt P08709); test: Inhibition of factor7a (unknown origin)
T3 sequence (P08709 whole entry): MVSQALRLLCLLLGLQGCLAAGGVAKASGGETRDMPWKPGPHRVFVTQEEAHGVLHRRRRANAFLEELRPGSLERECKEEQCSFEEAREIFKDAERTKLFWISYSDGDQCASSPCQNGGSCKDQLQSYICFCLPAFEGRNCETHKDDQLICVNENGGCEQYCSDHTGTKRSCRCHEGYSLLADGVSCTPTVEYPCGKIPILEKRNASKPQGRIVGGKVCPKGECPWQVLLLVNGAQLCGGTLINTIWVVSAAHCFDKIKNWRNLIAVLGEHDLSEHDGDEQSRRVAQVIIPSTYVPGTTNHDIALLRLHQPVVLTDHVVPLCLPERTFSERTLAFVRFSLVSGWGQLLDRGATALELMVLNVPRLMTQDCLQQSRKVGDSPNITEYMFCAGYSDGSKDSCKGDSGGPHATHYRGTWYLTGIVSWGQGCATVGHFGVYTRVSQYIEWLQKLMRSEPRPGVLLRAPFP

Coagulation factor X = Coagulation factor X (Homo sapiens, UniProt P00742); test: Inhibition of factor10a (unknown origin)
Coagulation factor X, sequence (P00742 41-179 limits assumed): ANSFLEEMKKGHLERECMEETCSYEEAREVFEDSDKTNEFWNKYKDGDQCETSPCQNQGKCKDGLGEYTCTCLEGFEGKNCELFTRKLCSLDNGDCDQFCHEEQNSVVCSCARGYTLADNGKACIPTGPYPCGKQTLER
Coagulation factor X, sequence (P00742 235-488 limits assumed): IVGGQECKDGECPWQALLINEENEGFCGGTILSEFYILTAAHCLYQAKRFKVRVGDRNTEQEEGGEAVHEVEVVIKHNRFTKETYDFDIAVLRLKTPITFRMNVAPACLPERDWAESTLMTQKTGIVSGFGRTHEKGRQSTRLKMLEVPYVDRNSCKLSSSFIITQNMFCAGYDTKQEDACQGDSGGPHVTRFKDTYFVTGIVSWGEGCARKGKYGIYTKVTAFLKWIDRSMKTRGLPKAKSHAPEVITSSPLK

Prothrombin = Prothrombin (Homo sapiens, UniProt P00734); test: Inhibition of factor2a (unknown origin)
Coagulation factor XI = Coagulation factor XI (Homo sapiens, UniProt P03951); test: Inhibition of factor11a (unknown origin)
Coagulation factor XI, sequence (P03951 19-387 limits assumed): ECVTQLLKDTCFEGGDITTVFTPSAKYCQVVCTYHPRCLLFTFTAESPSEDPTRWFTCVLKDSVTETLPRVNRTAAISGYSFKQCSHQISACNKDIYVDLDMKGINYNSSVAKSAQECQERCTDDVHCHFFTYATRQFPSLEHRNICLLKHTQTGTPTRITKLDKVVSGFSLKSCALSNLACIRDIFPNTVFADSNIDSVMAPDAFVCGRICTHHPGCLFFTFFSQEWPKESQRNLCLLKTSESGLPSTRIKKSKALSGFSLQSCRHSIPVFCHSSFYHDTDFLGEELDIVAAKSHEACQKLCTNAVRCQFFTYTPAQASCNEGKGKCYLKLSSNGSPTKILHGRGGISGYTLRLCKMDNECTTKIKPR
Coagulation factor XI, sequence (P03951 388-625 limits assumed): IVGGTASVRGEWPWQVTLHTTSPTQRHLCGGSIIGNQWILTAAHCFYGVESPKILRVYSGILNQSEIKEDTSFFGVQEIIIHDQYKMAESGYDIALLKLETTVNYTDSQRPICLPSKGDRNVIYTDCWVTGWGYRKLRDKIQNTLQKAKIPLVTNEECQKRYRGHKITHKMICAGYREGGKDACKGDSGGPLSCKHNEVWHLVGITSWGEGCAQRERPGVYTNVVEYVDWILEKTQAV

Carboxypeptidase A1 = target: T4, Carboxypeptidase A1 (Homo sapiens, UniProt P15085); test: Inhibition of CPA (unknown origin)
T4 sequence (P15085 whole entry): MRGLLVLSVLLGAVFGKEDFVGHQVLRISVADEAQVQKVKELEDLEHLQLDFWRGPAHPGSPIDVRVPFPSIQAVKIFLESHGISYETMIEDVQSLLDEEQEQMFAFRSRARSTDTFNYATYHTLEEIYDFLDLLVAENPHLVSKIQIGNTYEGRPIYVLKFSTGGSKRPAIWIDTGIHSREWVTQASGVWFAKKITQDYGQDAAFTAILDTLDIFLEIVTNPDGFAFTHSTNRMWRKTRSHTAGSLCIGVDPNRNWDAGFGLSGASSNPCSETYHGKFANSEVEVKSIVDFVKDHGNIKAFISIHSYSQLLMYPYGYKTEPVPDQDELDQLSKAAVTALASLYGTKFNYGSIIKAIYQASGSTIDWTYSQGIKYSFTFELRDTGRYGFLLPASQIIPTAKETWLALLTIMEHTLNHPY

Compound: CC(C)CCNC(=O)[C@@H](CCCCNC(=O)OCc1ccccc1)NC(=O)N[C@@H](CCCCN)C(=O)O
IC50 (Carboxypeptidase B2): 1400 nM

Compound: CC(C)[C@@H]1NC(=O)[C@H](NC(=O)N[C@@H](CCCCN)C(=O)O)CCCCNC(=O)[C@H](Cc2ccccc2)NC(=O)[C@H](C)N(C)C(=O)[C@H](CCc2ccc(O)cc2)NC1=O
IC50 [1]: 5.7 µM
IC50 (Coagulation factor VII): > 100 µM
IC50 (Coagulation factor X): > 100 µM
IC50 (Prothrombin): 6000 nM
IC50 (Coagulation factor XI): 12 µM
IC50 (Carboxypeptidase A1): > 100 µM

Compound: CC12CCC(C(NC(=O)[C@H](NC(=O)N[C@@H](CCCCN)C(=O)O)C3CCCCC3)C1)C2(C)C (stereo partly specified)
IC50 (Carboxypeptidase B2): 1000 nM

Compound: CC(C)(NC(=O)N[C@@H](CCCCN)C(=O)O)C(=O)NC1CC2(C)CCC1C2(C)C (stereo partly specified)
IC50 (Carboxypeptidase B2): 6100 nM

Compound: CC12CCC(C(NC(=O)[C@@H](CC3CCCCC3)NC(=O)N[C@H](C#N)Cc3ccc(N)nc3)C1)C2(C)C (stereo partly specified)
IC50 (Carboxypeptidase B2): 54000 nM

Compound: CC(C)[C@@H]1NC(=O)[C@H](NC(=O)N[C@@H](CCCNC(=N)N)C(=O)O)CCCCNC(=O)[C@H](Cc2ccccc2)NC(=O)[C@H](C)N(C)C(=O)[C@H](CCc2ccc(O)cc2)NC1=O [ANABAENOPEPTIN B] ({Arg-CO}-[dK]V[hTyr][NMeA]F; lactam 1-C)
IC50 (Coagulation factor VII): > 100 µM
IC50 (Coagulation factor X): > 100 µM
IC50 (Prothrombin): 1600 nM
IC50 (Coagulation factor XI): 24 µM

Compound: CC[C@H](C)[C@@H]1NC(=O)[C@H](NC(=O)N[C@@H](CCCNC(=N)N)C(=O)O)CCCCNC(=O)[C@H](Cc2ccccc2)NC(=O)[C@H](C)N(C)C(=O)[C@H](CCc2ccc(O)cc2)NC1=O [ANABAENOPEPTIN F] ({Arg-CO}-[dK]I[hTyr][NMeA]F; lactam 1-C)
IC50 (Coagulation factor VII): 35 µM
IC50 (Coagulation factor X): 38 µM
IC50 (Prothrombin): 350 nM
IC50 (Coagulation factor XI): 3.9 µM

Now from value to compound:

IC50 (Carboxypeptidase B2): 120 nM
Compound: NCCCC[C@H](NC(=O)N[C@H](CC1CCCCC1)C(=O)NCC(c1ccccc1)c1ccccc1)C(=O)O

IC50 (Carboxypeptidase B2): 15 nM
Compound: CCC[C@@H](NC(=O)N[C@@H](CCCCN)C(=O)O)C(=O)NC1CC2(C)CCC1C2(C)C (stereo partly specified)

IC50 (Carboxypeptidase B2): 38 nM
Compound: CC12CCC(C(NC(=O)[C@@H](CC3CCCCC3)NC(=O)N[C@@H](CS(=O)(=O)CCN)C(=O)O)C1)C2(C)C (stereo partly specified)

IC50 (Carboxypeptidase B2): 1 nM
Compound: CC12CCC(C(NC(=O)[C@@H](CC3CCCCC3)NC(=O)N[C@@H](Cc3ccc(N)nc3)C(=O)O)C1)C2(C)C (stereo partly specified)

IC50 (Carboxypeptidase B2): 250 nM
Compound: CC12CCC(C(NC(=O)[C@@H](CC3CCCCC3)NC(=O)N[C@H](Cc3ccc(N)nc3)C(=O)O)C1)C2(C)C (stereo partly specified)

IC50 (Carboxypeptidase B2): 570 nM
Compound: CC12CCC(C(NC(=O)[C@@H](CC3CCCCC3)NC(=O)N[C@@H](Cc3ccc(N)nc3)C(N)=O)C1)C2(C)C (stereo partly specified)

IC50 (Carboxypeptidase B2): 15 nM
Compound: CC12CCC(C(NC(=O)[C@@H](Cc3ccccc3)NC(=O)N[C@@H](CCCCN)C(=O)O)C1)C2(C)C (single isomer, unassigned; (+))

IC50 (Carboxypeptidase B2): 57 nM
Compound: CC(C)C[C@@H](NC(=O)N[C@@H](CCCCN)C(=O)O)C(=O)NC1CC2(C)CCC1C2(C)C (single isomer, unassigned; (+))
